Assays:
human IR (hIR) = target: T1, human IR (hIR) (Homo sapiens, UniProt P06213); experiment: TR-FRET kinase assay of purified hIR; assay type: biochemical; conditions: activated hIR 0.5 nM, 10 μM ATP, values given as pIC50 category
T1 construct: containing amino acid residues 979-1382 of human IR; made in house; host or cells: Sf9 cells (baculovirus), same process as hIGF1R

ALK = ALK (Homo sapiens, UniProt Q9UM73); experiment: ALK enzyme assay (HTRF); assay type: biochemical; conditions: 0.25 nM ALK, 15.0 μM ATP, values given as pIC50 category
Procedure, shortened: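 Isolated ALK phosphorylates a biotinylated tyrosine peptide, 120 min at 20° C; anti-phosphotyrosine Eu-cryptate/streptavidin-XL665 HTRF read after 60 min with EDTA-containing detection mix.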

Chain of ALK (Q9UM73 19-1620): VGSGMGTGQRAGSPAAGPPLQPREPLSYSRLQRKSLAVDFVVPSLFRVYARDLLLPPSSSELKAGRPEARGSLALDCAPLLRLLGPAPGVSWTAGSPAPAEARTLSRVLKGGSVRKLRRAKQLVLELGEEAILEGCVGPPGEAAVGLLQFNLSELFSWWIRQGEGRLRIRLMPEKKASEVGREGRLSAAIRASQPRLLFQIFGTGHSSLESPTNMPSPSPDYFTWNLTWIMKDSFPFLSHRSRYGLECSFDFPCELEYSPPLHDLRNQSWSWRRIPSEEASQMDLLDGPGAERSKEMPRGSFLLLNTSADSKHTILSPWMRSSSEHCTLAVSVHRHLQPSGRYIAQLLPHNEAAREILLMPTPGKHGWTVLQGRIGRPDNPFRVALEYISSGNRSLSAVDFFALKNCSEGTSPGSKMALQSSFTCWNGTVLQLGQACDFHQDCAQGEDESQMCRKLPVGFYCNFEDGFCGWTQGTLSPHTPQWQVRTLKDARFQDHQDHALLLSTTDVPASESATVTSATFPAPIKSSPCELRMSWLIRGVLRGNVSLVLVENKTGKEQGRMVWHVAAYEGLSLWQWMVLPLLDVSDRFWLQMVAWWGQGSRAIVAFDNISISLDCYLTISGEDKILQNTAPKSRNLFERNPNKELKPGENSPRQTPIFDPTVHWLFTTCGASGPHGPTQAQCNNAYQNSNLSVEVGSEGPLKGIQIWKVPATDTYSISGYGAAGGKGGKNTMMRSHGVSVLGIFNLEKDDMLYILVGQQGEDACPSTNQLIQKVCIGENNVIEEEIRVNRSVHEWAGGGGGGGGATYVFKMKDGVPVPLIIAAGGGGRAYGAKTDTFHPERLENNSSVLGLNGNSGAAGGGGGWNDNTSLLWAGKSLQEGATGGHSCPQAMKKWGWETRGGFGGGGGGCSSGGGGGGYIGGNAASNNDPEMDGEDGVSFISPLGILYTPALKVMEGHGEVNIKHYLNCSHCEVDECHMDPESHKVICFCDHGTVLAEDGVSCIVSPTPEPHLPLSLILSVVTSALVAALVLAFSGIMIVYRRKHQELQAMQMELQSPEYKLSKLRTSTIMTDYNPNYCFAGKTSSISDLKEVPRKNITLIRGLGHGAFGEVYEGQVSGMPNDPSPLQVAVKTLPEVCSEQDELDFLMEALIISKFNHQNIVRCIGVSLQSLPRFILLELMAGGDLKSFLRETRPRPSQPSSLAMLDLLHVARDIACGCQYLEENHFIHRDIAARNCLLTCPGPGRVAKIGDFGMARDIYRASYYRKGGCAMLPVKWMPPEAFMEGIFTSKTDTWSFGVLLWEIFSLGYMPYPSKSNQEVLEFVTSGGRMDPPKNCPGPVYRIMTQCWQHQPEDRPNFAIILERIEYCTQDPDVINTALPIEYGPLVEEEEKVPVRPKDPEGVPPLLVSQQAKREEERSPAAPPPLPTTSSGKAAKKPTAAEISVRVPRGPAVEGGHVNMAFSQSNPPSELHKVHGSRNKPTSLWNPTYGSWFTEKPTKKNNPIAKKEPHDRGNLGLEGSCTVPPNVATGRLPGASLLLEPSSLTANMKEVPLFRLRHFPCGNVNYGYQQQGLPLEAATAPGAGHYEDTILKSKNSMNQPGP
T1 sequence (P06213 979-1382): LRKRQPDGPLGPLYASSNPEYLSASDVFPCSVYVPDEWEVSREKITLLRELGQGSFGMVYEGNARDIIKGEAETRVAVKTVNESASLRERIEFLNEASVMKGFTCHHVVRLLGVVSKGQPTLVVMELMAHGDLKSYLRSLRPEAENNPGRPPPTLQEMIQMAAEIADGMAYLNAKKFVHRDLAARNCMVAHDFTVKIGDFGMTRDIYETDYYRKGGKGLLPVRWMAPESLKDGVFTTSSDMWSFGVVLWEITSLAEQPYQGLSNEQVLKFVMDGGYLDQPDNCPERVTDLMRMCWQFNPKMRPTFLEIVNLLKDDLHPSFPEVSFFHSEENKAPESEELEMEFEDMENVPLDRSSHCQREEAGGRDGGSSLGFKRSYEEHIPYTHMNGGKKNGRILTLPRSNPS

IC50 (human IR (hIR)) [nM] | IC50 (ALK) [nM] | Compound
1.26 to 3.98 | 1.26 to 3.98 | COc1cc(N2CCC(N3CCN(CCF)CC3)CC2)ccc1Nc1nc(Nc2cccc(F)c2C(N)=O)c2cc[nH]c2n1 [Example 114, 2-fluoro-6-[(2-{[4-{4-[4-(2-fluoroethyl)-1-piperazinyl]-1-piperidinyl}-2-(methyloxy)phenyl]amino}-1H-pyrrolo[2,3-d]pyrimidin-4-yl)amino]benzamide]
1.26 to 3.98 | 0.251 to 1 | COc1cc(N2CCC(N3CCN(CCS(C)(=O)=O)CC3)CC2)ccc1Nc1nc(Nc2cccc(F)c2C(N)=O)c2cc[nH]c2n1 [Example 115, 2-fluoro-6-[(2-{[2-(methyloxy)-4-(4-{4-[2-(methylsulfonyl)ethyl]-1-piperazinyl}-1-piperidinyl)phenyl]amino}-1H-pyrrolo[2,3-d]pyrimidin-4-yl)amino]benzamide]
0.251 to 1 | 1.26 to 3.98 | COc1cc(N2CCOC[C@@H]2C)ccc1Nc1nc(Nc2cc(F)c(F)cc2C(N)=O)c2cc[nH]c2n1 [Example 105, 4,5-difluoro-2-[(2-{[4-[(3S)-3-methyl-4-morpholinyl]-2-(methyloxy)phenyl]amino}-1H-pyrrolo[2,3-d]pyrimidin-4-yl)amino]benzamide]
0.251 to 1 | 1.26 to 3.98 | COc1cc(N2CCC[C@H](O)C2)ccc1Nc1nc(Nc2cc(F)ccc2C(N)=O)c2cc[nH]c2n1 [Example 74, 4-fluoro-2-[(2-{[4-[(3S)-3-hydroxy-1-piperidinyl]-2-(methyloxy)phenyl]amino}-1H-pyrrolo[2,3-d]pyrimidin-4-yl)amino]benzamide]
1.26 to 3.98 | 5.01 to 200 | COc1cc(N2CCOCC2)ccc1Nc1nc(Nc2cc(F)ccc2C(N)=O)c2cc[nH]c2n1 [Example 83, 4-fluoro-2-[(2-{[2-(methyloxy)-4-(4-morpholinyl)phenyl]amino}-1H-pyrrolo[2,3-d]pyrimidin-4-yl)amino]benzamide]
1.26 to 3.98 | 0.251 to 1 | COc1cc(N2CCC(C3CCN(CCS(C)(=O)=O)CC3)CC2)ccc1Nc1nc(Nc2cccc(F)c2C(N)=O)c2cc[nH]c2n1 [Example 112, 2-fluoro-6-({2-[(2-(methyloxy)-4-{1′-[2-(methylsulfonyl)ethyl]-4,4′-bipiperidin-1-yl}phenyl)amino]-1H-pyrrolo[2,3-d]pyrimidin-4-yl}amino)benzamide]
1.26 to 3.98 | 0.251 to 1 | CNC(=O)c1c(F)cccc1Nc1nc(Nc2cc3c(cc2OC)C(C)(C)CN3C(=O)CN(C)C)nc2[nH]ccc12 [Example 127, 2-[(2-{[1-(N,N-dimethylglycyl)-3,3-dimethyl-5-(methyloxy)-2,3-dihydro-1H-indol-6-yl]amino}-1H-pyrrolo[2,3-d]pyrimidin-4-yl)amino]-6-fluoro-N-methylbenzamide]
0.251 to 1 | 1.26 to 3.98 | COc1cc(N2CCOC[C@@H]2C)ccc1Nc1nc(Nc2ccc(F)cc2C(N)=O)c2cc[nH]c2n1 [Example 61, 5-fluoro-2-[(2-{[4-[(3S)-3-methyl-4-morpholinyl]-2-(methyloxy)phenyl]amino}-1H-pyrrolo[2,3-d]pyrimidin-4-yl)amino]benzamide]
1.26 to 3.98 | 1.26 to 3.98 | COc1cc(N2CCC(N3CC[C@@H](F)C3)CC2)ccc1Nc1nc(Nc2cccc(F)c2C(N)=O)c2cc[nH]c2n1 [Example 44, 2-fluoro-6-[(2-{[4-{4-[(3R)-3-fluoro-1-pyrrolidinyl]-1-piperidinyl}-2-(methyloxy)phenyl]amino}-1H-pyrrolo[2,3-d]pyrimidin-4-yl)amino]benzamide]
0.251 to 1 | 0.251 to 1 | COc1cc(N2CCC(O)CC2)ccc1Nc1nc(Nc2cc(F)c(F)cc2C(N)=O)c2cc[nH]c2n1 [Example 99]
1.26 to 3.98 | 0.251 to 1 | CCCN1CCC=C(c2ccc(Nc3nc(Nc4cc(F)ccc4C(=O)N[C@@H](C)CC)c4cc[nH]c4n3)c(OC)c2)C1 [Example 87, 4-fluoro-2-[(2-{[2-(methyloxy)-4-(1-propyl-1,2,5,6-tetrahydro-3-pyridinyl)phenyl]amino}-1H-pyrrolo[2,3-d]pyrimidin-4-yl)amino]-N-[(1S)-1-methylpropyl]benzamide]
0.251 to 1 | 1.26 to 3.98 | COc1cc(N2CCC(N3CCCC(F)(F)C3)CC2)ccc1Nc1nc(Nc2cc(F)ccc2C(N)=O)c2cc[nH]c2n1 [Example 77, 2-[(2-{[4-(3,3-difluoro-1,4′-bipiperidin-1′-yl)-2-(methyloxy)phenyl]amino}-1H-pyrrolo[2,3-d]pyrimidin-4-yl)amino]-4-fluorobenzamide]
1.26 to 3.98 | 0.251 to 1 | CCNC(=O)c1c(F)cccc1Nc1nc(Nc2cc3c(cc2OC)CCN3C(=O)CN(C)C)nc2[nH]ccc12 [Example 126, 2-[(2-{[1-(N,N-dimethylglycyl)-5-(methyloxy)-2,3-dihydro-1H-indol-6-yl]amino}-1H-pyrrolo[2,3-d]pyrimidin-4-yl)amino]-N-ethyl-6-fluorobenzamide]
1.26 to 3.98 | 1.26 to 3.98 | CCN(CCO)CC(=O)N1CCc2cc(OC)c(Nc3nc(Nc4cccc(F)c4C(N)=O)c4cc[nH]c4n3)cc21 [Example 177, 2-[(2-{[1-[N-ethyl-N-(2-hydroxyethyl)glycyl]-5-(methyloxy)-2,3-dihydro-1H-indol-6-yl]amino}-1H-pyrrolo[2,3-d]pyrimidin-4-yl)amino]-6-fluorobenzamide]
1.26 to 3.98 | 1.26 to 3.98 | COc1cc2c(cc1Nc1nc(Nc3cccc(F)c3C(N)=O)c3cc[nH]c3n1)CN(C(=O)CN(C)C)CC2 [Example 123, 2-[(2-{[2-(N,N-dimethylglycyl)-6-(methyloxy)-1,2,3,4-tetrahydro-7-isoquinolinyl]amino}-1H-pyrrolo[2,3-d]pyrimidin-4-yl)amino]-6-fluorobenzamide]
1.26 to 3.98 | 1.26 to 3.98 | COc1ccc(N2CCN(C)CC2)cc1Nc1nc(Nc2ccccc2C(N)=O)c2cc[nH]c2n1 [Example 9, 2-[(2-{[2-(methyloxy)-5-(4-methyl-1-piperazinyl)phenyl]amino}-1H-pyrrolo[2,3-d]pyrimidin-4-yl)amino]benzamide]
1.26 to 3.98 | 1.26 to 3.98 | COc1cc2c(cc1Nc1nc(Nc3cccc(F)c3C(N)=O)c3cc[nH]c3n1)CN(C(C)C)CC2 [Example 236, 2-fluoro-6-[(2-{[2-(1-methylethyl)-6-(methyloxy)-1,2,3,4-tetrahydro-7-isoquinolinyl]amino}-1H-pyrrolo[2,3-d]pyrimidin-4-yl)amino]benzamide]
0.251 to 1 | 0.251 to 1 | COc1cc(N2CCC(N3CCOCC3)CC2)ccc1Nc1nc(Nc2cc(F)c(F)cc2C(N)=O)c2cc[nH]c2n1 [Example 101, 4,5-difluoro-2-{[2-({2-(methyloxy)-4-[4-(4-morpholinyl)-1-piperidinyl]phenyl}amino)-1H-pyrrolo[2,3-d]pyrimidin-4-yl]amino}benzamide]
0.251 to 1 | 1.26 to 3.98 | COc1cc2c(cc1Nc1nc(Nc3cccc(F)c3C(N)=O)c3cc[nH]c3n1)CCN2C(=O)CN(C)C [Example 197, 2-[(2-{[1-(N,N-dimethylglycyl)-6-(methyloxy)-2,3-dihydro-1H-indol-5-yl]amino}-1H-pyrrolo[2,3-d]pyrimidin-4-yl)amino]-6-fluorobenzamide]
0.251 to 1 | 1.26 to 3.98 | COc1cc(N2CCN(C(C)=O)CC2)ccc1Nc1nc(Nc2cc(F)c(F)cc2C(N)=O)c2cc[nH]c2n1 [Example 103, 2-[(2-{[4-(4-acetyl-1-piperazinyl)-2-(methyloxy)phenyl]amino}-1H-pyrrolo[2,3-d]pyrimidin-4-yl)amino]-4,5-difluorobenzamide]
0.251 to 1 | 0.251 to 1 | COc1cc(N2CCN(C(C)C)CC2)ccc1Nc1nc(Nc2ccc(Br)cc2C(N)=O)c2cc[nH]c2n1 [Example 68, 5-bromo-2-[(2-{[4-[4-(1-methylethyl)-1-piperazinyl]-2-(methyloxy)phenyl]amino}-1H-pyrrolo[2,3-d]pyrimidin-4-yl)amino]benzamide]
0.251 to 1 | 1.26 to 3.98 | COc1cc(N2CCOCC2)ccc1Nc1nc(Nc2cc(F)c(F)cc2C(N)=O)c2cc[nH]c2n1 [Example 104, 4,5-difluoro-2-[(2-{[2-(methyloxy)-4-(4-morpholinyl)phenyl]amino}-1H-pyrrolo[2,3-d]pyrimidin-4-yl)amino]benzamide]
1.26 to 3.98 | 1.26 to 3.98 | CNC(=O)c1c(Nc2nc(Nc3cc4c(cc3OC)CCCN4C(=O)CN(C)C)nc3[nH]ccc23)ccc(F)c1F [Example 163, 6-[(2-{[1-(N,N-dimethylglycyl)-6-(methyloxy)-1,2,3,4-tetrahydro-7-quinolinyl]amino}-1H-pyrrolo[2,3-d]pyrimidin-4-yl)amino]-2,3-difluoro-N-methylbenzamide]
1.26 to 3.98 | 0.251 to 1 | CCCNC(=O)c1c(F)cccc1Nc1nc(Nc2cc3c(cc2OC)CCN3C(=O)CN(C)C)nc2[nH]ccc12 [Example 156, 2-[(2-{[1-(N,N-dimethylglycyl)-5-(methyloxy)-2,3-dihydro-1H-indol-6-yl]amino}-1H-pyrrolo[2,3-d]pyrimidin-4-yl)amino]-6-fluoro-N-propylbenzamide]
1.26 to 3.98 | 1.26 to 3.98 | COc1cc2c(cc1Nc1nc(Nc3cccc(F)c3C(N)=O)c3cc[nH]c3n1)N(C(=O)CN)CC2 [Example 141, 2-fluoro-6-[(2-{[1-glycyl-5-(methyloxy)-2,3-dihydro-1H-indol-6-yl]amino}-1H-pyrrolo[2,3-d]pyrimidin-4-yl)amino]benzamide]
0.251 to 1 | 1.26 to 3.98 | COc1cc2c(cc1Nc1nc(Nc3cccc(F)c3C(N)=O)c3cc[nH]c3n1)N(C(=O)CN1CCCC1)CC2 [Example 138, 2-fluoro-6-[(2-{[5-(methyloxy)-1-(1-pyrrolidinylacetyl)-2,3-dihydro-1H-indol-6-yl]amino}-1H-pyrrolo[2,3-d]pyrimidin-4-yl)amino]benzamide]
